ChEMBL document CHEMBL4813916, “Synthesis and characterization of new potent TLR7 antagonists based on analysis of the binding mode using biomolecular simulations” (Eur J Med Chem, 2021)

Legend:
[1] = molecular target: T1, Toll-like receptor 7 (Homo sapiens, UniProt Q9NYK1); test: Antagonist activity at TLR7 (unknown origin)
T1 sequence (Q9NYK1 whole entry): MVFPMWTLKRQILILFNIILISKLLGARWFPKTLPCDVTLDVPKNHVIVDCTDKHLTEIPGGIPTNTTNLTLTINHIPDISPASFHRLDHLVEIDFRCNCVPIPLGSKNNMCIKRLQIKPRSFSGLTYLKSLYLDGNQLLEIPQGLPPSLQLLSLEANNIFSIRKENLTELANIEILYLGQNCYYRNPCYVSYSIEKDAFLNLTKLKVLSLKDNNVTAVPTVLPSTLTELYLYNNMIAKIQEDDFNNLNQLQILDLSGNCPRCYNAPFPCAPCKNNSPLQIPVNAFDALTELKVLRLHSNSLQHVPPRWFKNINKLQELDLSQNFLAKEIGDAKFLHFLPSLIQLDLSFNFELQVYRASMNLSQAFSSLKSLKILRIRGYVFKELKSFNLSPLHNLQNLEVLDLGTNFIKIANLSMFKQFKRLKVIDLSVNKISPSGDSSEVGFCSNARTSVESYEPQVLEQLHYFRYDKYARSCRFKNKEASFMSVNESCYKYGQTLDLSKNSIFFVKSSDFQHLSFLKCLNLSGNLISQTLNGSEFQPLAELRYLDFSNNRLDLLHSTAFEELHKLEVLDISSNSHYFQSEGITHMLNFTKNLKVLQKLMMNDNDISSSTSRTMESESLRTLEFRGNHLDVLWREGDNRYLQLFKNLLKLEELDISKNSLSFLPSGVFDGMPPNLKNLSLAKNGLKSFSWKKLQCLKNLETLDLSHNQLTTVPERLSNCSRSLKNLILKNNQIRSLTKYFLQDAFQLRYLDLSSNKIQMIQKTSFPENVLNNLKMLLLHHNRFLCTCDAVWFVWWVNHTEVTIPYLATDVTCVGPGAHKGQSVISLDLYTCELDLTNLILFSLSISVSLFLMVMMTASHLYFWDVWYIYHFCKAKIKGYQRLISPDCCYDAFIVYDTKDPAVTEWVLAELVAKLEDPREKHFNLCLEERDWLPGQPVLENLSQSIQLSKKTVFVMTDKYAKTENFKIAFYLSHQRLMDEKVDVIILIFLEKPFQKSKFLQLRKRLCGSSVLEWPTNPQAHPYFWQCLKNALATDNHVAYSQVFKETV

[2] = molecular target: T1, Toll-like receptor 7; test: Antagonist activity at human TLR7 expressed in HEK-blue-HTLR7 cells assessed as inhibition of CL264-induced NFkappaB activation measured after 24 hrs by secreted alkaline phosphatase reporter assay; assay type: cell-based

## CC(C)Cn1cnc2c(=O)oc3ccccc3c21
[1]
  IC50: 23 µM

## CCCSc1nc2c(O)nnc(O)c2n1Cc1ccccc1
[1]
  IC50: 110 µM

## COc1cc2c(N3CCN(C(=O)OC(C)(C)C)CC3)nc(N3CCN(C)CC3)nc2cc1OCc1ccccc1
[1]
  IC50: 10 µM

## COc1cc2c(N3CCN(C(=O)c4ccccc4)CC3)nc(N(C)C)nc2cc1OC1CCCC1
[1]
  IC50: 10 µM

## CCCNc1nc2c(c(=O)n(C)c(=O)n2C)n1CC(C)C
[1]
  IC50: 660 µM

## COC(=O)[C@H]1O[C@H](n2cnc3c(N)ncnc32)[C@H](O)[C@@H]1O
[1]
  IC50: > 1000 µM

## COc1ccc(CNc2nc(N3CCN(C)CC3)c3cc(OC)c(OCc4ccccc4)cc3n2)cc1
[2]
  IC50: 19.9 µM

## Nc1ncnc2c1nc(Br)n2C[C@@H](O)CO
[1]
  IC50: 272 µM

## COc1ccc(CNc2nc(N3CCNCC3)c3cc(OC)c(OCc4ccccc4)cc3n2)cc1
[2]
  IC50: 27.8 µM

## COc1cc2c(N(C)C)nc(NCCCN3CCN(C)CC3)nc2cc1OCCCN1CCCC1
[2]
  IC50: > 50 µM

## CCN(CC)CCn1cnc2c(=O)oc3ccccc3c21
[1]
  IC50: 37 µM

## NCc1ccc(C(=O)Nc2cccc(-c3nc4cc(OCCCN5CCCC5)ccc4o3)c2)cc1
[1]
  IC50: 66.2 µM

## COc1ccc(CNc2nc(N3CCN(C4CCCC4)CC3)c3cc(OC)c(OCCCN4CCCC4)cc3n2)cc1
[2]
  IC50: 1.83 µM

## CCCCSc1nnc2n(N)c(=O)c3ccccc3n12
[1]
  IC50: 185 µM

## CCSc1nc2c(N)ncnc2[nH]1
[1]
  IC50: 253 µM

## Nc1ncnc2c1ncn2CCO
[1]
  IC50: 684 µM
